What was measured:
brain blood circulation = experiment: Effect on the brain blood circulation and on the consumption of oxygen and glucose by the brain, anaesthetized dogs; format: in vivo, dog; set-up: O2 cap. = amount of oxygen supplied to the brain tissues / art. QO2 / QO2: unit not given here; conditions: 100 mg/kg perorally
Description: Effect of tetrahydroalstonine on the brain blood circulation and on the consumption of oxygen and of glucose by the brain.
On arterial and venous blood sample the concentration of glucose has been determined enzymatically according to the method of hexokinase (C. Hennon and co-workers).
The determination of the pressure of oxygene (PO2) has been carried out with a polarographic analyser and that of carbonic anhydride (PCO2) in the arterial or venous brain blood, using a Duo-Matic electrometer IL 123.

[1] = French Pat. 1.397.537; cited from earlier work
blood-sugar levels = conditions: rat, thesis (Kocialski); cited from earlier work
arterial blood pressure = conditions: dog, in vivo, 100 mg/kg
Description: This test has been carried out on lots of five dogs weighing from 16 to 20 kg. The dogs have been previously anaesthetized with chloralose by intravenous way and the intravenous injection of 50 mg heparine for each dog is renewed every 150 minutes.
The average arterial blood pressure is determined by dissection of a brachial artery and insertion of a catheter connected with a Statham P23 Db transducer.
The various parameters have been recorded by means on a polygraph and the hemodynamic survey has been afforded with two tracks-cathodic tubes.

[2] = test system: analgetic effect of Morphine; experiment: Analgetic effect of Morphine; conditions: in vivo
in vivo = conditions: mouse, po
Description: (§1) The search of an acute toxicity has been carried out on lots of mice (Rockland strain) weighing from […]. The mice received orally increasing dosis of tetrahydroalstonine suspended in an aqueous solvent.
(§2) The animals are kept under survey for 7 days and the deaths are recorded. The average lethal dosis has been graphically calculated according to the method of Wilcoxon and Litchfield. A lot of mice received only the solvent as controls.

mice (Rockland strain) = experiment: Acute toxicity, oral; conditions: mouse, in vivo
Description: as §1, §2

[3] = test system: Hexobarbital-induced sleeping time; experiment: Hexobarbital-induced sleeping time; format: in vivo; conditions: rodents, high dosages
[4] = test system: sleep after injection of Nembutal; experiment: Time of inducing the sleep after injection of Nembutal; format: in vivo; conditions: even at low dosages

SMILES: COC(=O)C1=CO[C@@H](C)[C@@H]2CN3CCc4c([nH]c5ccccc45)[C@@H]3C[C@H]12 [Tetrahydroalstonine]
- concentration of oxygen in the brain capillars (brain blood circulation): increased
- consumption of glucose by the brain (brain blood circulation): increase
- consumption of oxygen per minute (brain blood circulation): increased
- difference in concentration between arterial and venous oxygen (brain blood circulation): increased
- partial pressure in brain venous oxygen (PO2 VC) (brain blood circulation): decrease
- Cerebral flow (brain blood circulation; 45 minutes (Table I)): 89,8 ml/mn
- Concentration in capillary oxygen (brain blood circulation; 45 minutes (Table I)): 9,3
- Concentration in oxygen/mn (brain blood circulation; 45 minutes (Table I)): 12,8
- Consumption in glucose/mn (brain blood circulation; 45 minutes (Table I)): 7,1
- G/O = consumption in glucose per mn / concentration in oxygen (brain blood circulation; 45 minutes (Table I)): 0,6
- QO2 (brain blood circulation; 45 minutes (Table I)): 14,3
- Cerebral flow (brain blood circulation; 67 minutes (Table I)): 92,4 ml/mn
- Concentration in capillary oxygen (brain blood circulation; 67 minutes (Table I)): 8,7
- Concentration in oxygen/mn (brain blood circulation; 67 minutes (Table I)): 12,4
- Consumption in glucose/mn (brain blood circulation; 67 minutes (Table I)): 10,7
- G/O = consumption in glucose per mn / concentration in oxygen (brain blood circulation; 67 minutes (Table I)): 0,9
- QO2 (brain blood circulation; 67 minutes (Table I)): 13,1
- Cerebral flow (brain blood circulation; 90 minutes (Table I)): 95,8 ml/mn
- Concentration in capillary oxygen (brain blood circulation; 90 minutes (Table I)): 8,5
- Concentration in oxygen/mn (brain blood circulation; 90 minutes (Table I)): 12,4
- Consumption in glucose/mn (brain blood circulation; 90 minutes (Table I)): 11,3
- G/O = consumption in glucose per mn / concentration in oxygen (brain blood circulation; 90 minutes (Table I)): 1,0
- QO2 (brain blood circulation; 90 minutes (Table I)): 12,6
- Cerebral flow (brain blood circulation; 112 minutes (Table I)): 90,6 ml/mn
- Concentration in capillary oxygen (brain blood circulation; 112 minutes (Table I)): 8,4
- Concentration in oxygen/mn (brain blood circulation; 112 minutes (Table I)): 11,5
- Consumption in glucose/mn (brain blood circulation; 112 minutes (Table I)): 12,1
- G/O = consumption in glucose per mn / concentration in oxygen (brain blood circulation; 112 minutes (Table I)): 1,1
- QO2 (brain blood circulation; 112 minutes (Table I)): 12,4
- Cerebral flow (brain blood circulation; 135 minutes (Table I)): 84,8 ml/mn
- Concentration in capillary oxygen (brain blood circulation; 135 minutes (Table I)): 8,5
- Concentration in oxygen/mn (brain blood circulation; 135 minutes (Table I)): 11,4
- Consumption in glucose/mn (brain blood circulation; 135 minutes (Table I)): 10,9
- G/O = consumption in glucose per mn / concentration in oxygen (brain blood circulation; 135 minutes (Table I)): 1,2
- QO2 (brain blood circulation; 135 minutes (Table I)): 12,9
- CE p. 100 glucose (brain blood circulation; +45 min. (Table II)): 8,22 p. 100
- DC = Cerebral blood flow (brain blood circulation; +45 min. (Table II)): 90,0 ml/mn
- G/O (brain blood circulation; +45 min. (Table II)): 1,08
- O2 /min. (brain blood circulation; +45 min. (Table II)): 6,14
- O2 cap. = amount of oxygen supplied to the brain tissues (brain blood circulation; +45 min. (Table II)): 5,05
- PO2 vc = partial pressure of venous oxygen in the brain (brain blood circulation; +45 min. (Table II)): 28,50
- art. QO2 (brain blood circulation; +45 min. (Table II)): 14,16
- art. pH (brain blood circulation; +45 min. (Table II)): 7,39
- arterial Q gluc. (brain blood circulation; +45 min. (Table II)): 900 mg
- consumption in Gluc./min. (brain blood circulation; +45 min. (Table II)): 6,66
- ΔH^+/ΔQO2 (brain blood circulation; +45 min. (Table II)): -4,44
- ΔPCO2/ΔQO2 (brain blood circulation; +45 min. (Table II)): 109,97
- ΔQO2 (brain blood circulation; +45 min. (Table II)): +6,82
- CE p. 100 glucose (brain blood circulation; +67 min. (Table II)): 12,73 p. 100
- DC = Cerebral blood flow (brain blood circulation; +67 min. (Table II)): 99,0 ml/mn
- G/O (brain blood circulation; +67 min. (Table II)): 1,38
- O2 /min. (brain blood circulation; +67 min. (Table II)): 8,40
- O2 cap. = amount of oxygen supplied to the brain tissues (brain blood circulation; +67 min. (Table II)): 5,95
- PO2 vc = partial pressure of venous oxygen in the brain (brain blood circulation; +67 min. (Table II)): 24,25
- art. QO2 (brain blood circulation; +67 min. (Table II)): 14,50
- art. pH (brain blood circulation; +67 min. (Table II)): 7,425
- arterial Q gluc. (brain blood circulation; +67 min. (Table II)): 919 mg
- consumption in Gluc./min. (brain blood circulation; +67 min. (Table II)): 11,58
- ΔH^+/ΔQO2 (brain blood circulation; +67 min. (Table II)): -6,75
- ΔPCO2/ΔQO2 (brain blood circulation; +67 min. (Table II)): 114,84
- ΔQO2 (brain blood circulation; +67 min. (Table II)): +8,49
- CE p. 100 glucose (brain blood circulation; +90 min. (Table II)): 11,70 p. 100
- DC = Cerebral blood flow (brain blood circulation; +90 min. (Table II)): 112,5 ml/mn
- G/O (brain blood circulation; +90 min. (Table II)): 1,20
- O2 /min. (brain blood circulation; +90 min. (Table II)): 10,38
- O2 cap. = amount of oxygen supplied to the brain tissues (brain blood circulation; +90 min. (Table II)): 6,07
- PO2 vc = partial pressure of venous oxygen in the brain (brain blood circulation; +90 min. (Table II)): 21,75
- art. QO2 (brain blood circulation; +90 min. (Table II)): 14,25
- art. pH (brain blood circulation; +90 min. (Table II)): 7,455
- arterial Q gluc. (brain blood circulation; +90 min. (Table II)): 949 mg
- consumption in Gluc./min. (brain blood circulation; +90 min. (Table II)): 12,49
- ΔH^+/ΔQO2 (brain blood circulation; +90 min. (Table II)): -7,96
- ΔPCO2/ΔQO2 (brain blood circulation; +90 min. (Table II)): 111,05
- ΔQO2 (brain blood circulation; +90 min. (Table II)): +9,23
- CE p. 100 glucose (brain blood circulation; +112 min. (Table II)): 12,24 p. 100
- DC = Cerebral blood flow (brain blood circulation; +112 min. (Table II)): 112,5 ml/mn
- G/O (brain blood circulation; +112 min. (Table II)): 1,37
- O2 /min. (brain blood circulation; +112 min. (Table II)): 9,74
- O2 cap. = amount of oxygen supplied to the brain tissues (brain blood circulation; +112 min. (Table II)): 5,88
- PO2 vc = partial pressure of venous oxygen in the brain (brain blood circulation; +112 min. (Table II)): 23,0
- art. QO2 (brain blood circulation; +112 min. (Table II)): 13,95
- art. pH (brain blood circulation; +112 min. (Table II)): 7,44
- arterial Q gluc. (brain blood circulation; +112 min. (Table II)): 972 mg
- consumption in Gluc./min. (brain blood circulation; +112 min. (Table II)): 13,39
- ΔH^+/ΔQO2 (brain blood circulation; +112 min. (Table II)): -7,39
- ΔPCO2/ΔQO2 (brain blood circulation; +112 min. (Table II)): 103,93
- ΔQO2 (brain blood circulation; +112 min. (Table II)): +8,66
- CE p. 100 glucose (brain blood circulation; +135 min. (Table II)): 12,84 p. 100
- DC = Cerebral blood flow (brain blood circulation; +135 min. (Table II)): 92,0 ml/mn
- G/O (brain blood circulation; +135 min. (Table II)): 1,28
- O2 /min. (brain blood circulation; +135 min. (Table II)): 9,22
- O2 cap. = amount of oxygen supplied to the brain tissues (brain blood circulation; +135 min. (Table II)): 6,33
- PO2 vc = partial pressure of venous oxygen in the brain (brain blood circulation; +135 min. (Table II)): 19,75
- art. QO2 (brain blood circulation; +135 min. (Table II)): 14,18
- art. pH (brain blood circulation; +135 min. (Table II)): 7,48
- arterial Q gluc. (brain blood circulation; +135 min. (Table II)): 997 mg
- consumption in Gluc./min. (brain blood circulation; +135 min. (Table II)): 11,78
- ΔH^+/ΔQO2 (brain blood circulation; +135 min. (Table II)): -8,75
- ΔPCO2/ΔQO2 (brain blood circulation; +135 min. (Table II)): 129,74
- ΔQO2 (brain blood circulation; +135 min. (Table II)): +10,02
- blood flow (brain blood circulation; conclusion): noticeable and extended over a large period of time increase
- brain metabolism (brain blood circulation; conclusion): significant improvement
- adrenolytic activity [1]: adrenolytic agent
- effect on blood-sugar levels (blood-sugar levels): negative
- noticeable decrease of the blood arterial pressure (incidence) (arterial blood pressure): one case out of five
- effect on the analgetic effect of Morphine [2]: increases the analgetic effect of Morphine
- LD50 at 168 h (in vivo): > 3000 mg/kg
- toxicity (mice (Rockland strain)): practically devoid of toxic effect
- Hexobarbital-induced sleeping time [3]: increased
- time of inducing the sleep after injection of Nembutal [4]: increase

— patent US3969521A, “Pharmaceutical compositions containing tetrahydroalstonine and method for treating circulation disorders” (Science Union et Cie, Societe Francaise de Recherche Medical, priority 1974, dated 1976)
